Legend:
[1] = Distribution of DiR-loaded UsNFs in the GIT; type: in vivo, C57BL/6J mice; conditions: oral, 2 mg/kg DiR
Procedure: 34 Distribution of UsNFs in the GIT.
37 of 2 mg/kg DiR. […] The stomachs and
41 FITC-dextran permeability assay .
Blood samples were collected at
44 shielded from light exposure. […] Standards (0.1–
48 subtraction and subjected to statistical analysis.
The mice were divided into three groups
61 sterilized drinking water.

[2] = system: faecal metabolites of gut bacteria; test: Faecal metabolome analysis (GC-MS) in VAN-induced mice; type: in vivo, C57BL/6 mice
Procedure: The extract of faecal samples (40 mg/ml methanol) was prepared as described in the previous method. The obtained dry extract was derivatized with methoxyamine-HCl and BSTFA (Sigma-Aldrich, USA), followed by incubation for 1 h at 37 °C. Subsequently, the supernatant (10 μl) obtained after centrifugation at 10,000×g for 12 min was injected into an Agilent GC-MS. The injector, transfer line, and ion source were set at 280 °C, 150 °C and 230 °C, respectively. At the beginning, we set the oven temperature to 60 °C, and then increased at 60 °C/min for 2 min, followed by an increase at the rate of 10 °C/min until reaching 300 °C.

[3] = system: VAN-induced C57BL/6J mouse model; test: VAN-induced intestinal epithelial barrier dysfunction and gut inflammation model
Procedure: This was succeeded by a daily oral administration of 50 mg/kg UsNFs of CUR for another 10 days, whereas the control group (CON) received standard rodent feed and water (Fig. 5A).

## CCCCCCCCCCCCCCCCCCN1C(=CC=CC=CC=CC2=[N+](CCCCCCCCCCCCCCCCCC)c3ccccc3C2(C)C)C(C)(C)c2ccccc21 [Free DiR, 1,1′-dioctadecyl-3,3,3′,3′-tetramethylindotricarbocyanine]
[1]
  Residence in the GIT (NIR signal of DiR): quick removal via feces

## CN[C@H](CC(C)C)C(=O)N[C@H]1C(=O)N[C@@H](CC(N)=O)C(=O)N[C@H]2C(=O)N[C@H]3C(=O)N[C@H](C(=O)N[C@H](C(=O)O)c4cc(O)cc(O)c4-c4cc3ccc4O)[C@H](O)c3ccc(c(Cl)c3)Oc3cc2cc(c3O[C@@H]2O[C@H](CO)[C@@H](O)[C@H](O)[C@H]2O[C@H]2C[C@](C)(N)[C@H](O)[C@H](C)O2)Oc2ccc(cc2Cl)[C@H]1O [VAN, vancomycin]
[2]; VAN-induced group (CON 1.1 %)
  Content of butyrate in faeces: 0.14%
[2]; VAN-induced group (CON 1.3 %)
  Content of propionate in faeces: 0.16%
[2]; VAN-induced group (CON 1.52 %)
  Content of acetate in faeces: 0.16%
[2]; VAN-induced group (CON 2.2 %)
  Content of azelaic acid in faeces: 0.34%
[2]; VAN-induced group (CON 3.11 %)
  Content of 9,12,15-octadecatrienoic acid in faeces: 0.8%
[2]; VAN-induced group (CON 12.7 %)
  Content of 4-aminovaleric acid in faeces: 1.4%
[2]; VAN-induced group, printed from 23.7 % to 0.81 %
  Content of hexanoic acid in faeces: 0.81%
[3]; VAN 20 mg/ml in drinking water, 10 days
  Colon length increase over control group: 21.9%
[3]; VAN-induced group
  MDA level increase: around 2.5 times
